# Test results: patent publication US6875771B2, “Pyridopyrimidine derivatives as 5-HT6 antagonists” (Bristol-Myers Squibb Company, priority 2002, dated 2005)
# Target: T1, human 5-HT6 receptor (Homo sapiens, UniProt P50406)
# T1 construct: expressed in transfected cells
# Test: Radioligand binding at the 5-HT6 receptor (3H-LSD displacement)
# Settings: inhibition of 3H-LSD (1.6 nM) binding; membranes of cell line stably expressing human 5-HT6 receptor; 60 minutes at 37° C.
# Description: Radioligand Binding at the 5-HT6 Receptor
# Compounds of the present invention were evaluated using a cell line that stably expresses the human 5-HT6 receptor. Membranes prepared from the cell line were incubated with 3H-LSD (1.6 nM) in the presence of increasing concentrations (10^−10 to 10^−6 M) of test compounds for 60 minutes at 37° C. The reaction was terminated by vacuum filtration of the membranes and washing of the filters with assay buffer. Radioactivity retained on the filters was determined using liquid scintillation spectrometry. The potency of the test compound to inhibit 3H-LSD binding to the 5-HT6 receptor was defined as the concentration of compound required to inhibit 50% (IC50) of radioligand binding as determined by computer assisted analysis of the data. Clozapine was used as an internal standard for comparison.
# T1 sequence (P50406 whole entry): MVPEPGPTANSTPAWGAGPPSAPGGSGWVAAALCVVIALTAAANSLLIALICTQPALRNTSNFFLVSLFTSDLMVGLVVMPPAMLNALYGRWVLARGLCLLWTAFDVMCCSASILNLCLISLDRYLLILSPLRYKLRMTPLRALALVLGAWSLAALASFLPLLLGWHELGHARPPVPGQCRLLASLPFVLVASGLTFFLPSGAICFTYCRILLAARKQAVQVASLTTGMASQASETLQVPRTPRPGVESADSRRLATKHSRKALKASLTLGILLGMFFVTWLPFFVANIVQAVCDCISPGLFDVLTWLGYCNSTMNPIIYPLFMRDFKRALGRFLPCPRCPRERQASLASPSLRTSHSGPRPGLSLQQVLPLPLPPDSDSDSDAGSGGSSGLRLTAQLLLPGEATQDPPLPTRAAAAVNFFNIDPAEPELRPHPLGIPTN
row,IC50 [nM],Compound
1,< 20,"CSc1nc2cc(C)ccn2c(=N)c1S(=O)(=O)c1ccccc1 [Example 11, 3-Benzenesulfonyl-8-methyl-2-methylsulfanyl-pyrido[1,2-a]pyrimidin-4-ylideneamine]"
2,50 to 100,"CSc1nc2c3ncccc3ccn2c(=N)c1S(=O)(=O)c1ccccc1 [Example 24, 7-Benzenesulfonyl-6-methylsulfanyl-4,5,8a-triaza-phenanthren-8-ylideneamine]"
3,< 20,"CSc1nc2ccc(C)cn2c(=N)c1S(=O)(=O)c1ccccc1 [Example 14, 3-Benzenesulfonyl-7-methyl-2-methylsulfanyl-pyrido[1,2-a]pyrimidin-4-ylideneamine]"
4,< 20,"CSc1nc2ccccn2c(=N)c1S(=O)(=O)c1ccc(Cl)cc1 [Example 1, 3-(4-Chloro-benzenesulfonyl)-2-methylsulfanyl-pyrido[1,2-a]pyrimidin-4-ylideneamine]"
5,50 to 100,Cc1ccc(Nc2nc3ccc(C)cn3c(=N)c2S(=O)(=O)c2ccccc2)nc1 [Example 28]
6,< 20,"CSc1nc2ccccn2c(=N)c1S(=O)(=O)c1ccccc1 [Example 2, 3-Benzenesulfonyl-2-methylsulfanyl-pyrido[1,2-a]pyrimidin-4-ylideneamine]"
7,100 to 1000,"C[S+]([O-])c1nc2ccccn2c(=N)c1S(=O)(=O)c1ccccc1 (centres unmarked) [Example 32, 3-Benzenesulfonyl-2-methanesulfinyl-pyrido[1,2-a]pyrimidin-4-ylideneamine]"
8,50 to 100,"CSc1nc2ccccn2c(=O)c1S(=O)(=O)c1ccccc1 [Example 35, 3-Benzenesulfonyl-2-methylsulfanyl-pyrido[1,2-a]pyrimidin-4-one]"
9,100 to 1000,"CSc1nc2ccccn2c(=N)c1S(=O)(=O)c1ccc(OC(F)(F)F)cc1 [Example 9, 3-(4-Trifluoromethoxy-benzenesulfonyl)-2-methylsulfanyl-pyrido[1,2-a]pyrimidin-4-ylideneamine]"
10,< 20,"CSc1nc2ccccn2c(=N)c1S(=O)(=O)c1ccc(F)cc1 [Example 5, 3-(4-Fluoro-benzenesulfonyl)-2-methylsulfanyl-pyrido[1,2-a]pyrimidin-4-ylideneamine]"
11,< 20,"N=c1c(S(=O)(=O)c2ccccc2)c(NCCO)nc2ccccn12 [Example 29, 2-(3-Benzenesulfonyl-4-imino-4H-pyrido[1,2-a]pyrimidin-2-ylamino)-ethanol]"
12,< 20,"COc1nc2ccccn2c(=N)c1S(=O)(=O)c1ccccc1 [Example 30, 3-Benzenesulfonyl-2-methoxy-pyrido[1,2-a]pyrimidin-4-ylideneamine]"
13,50 to 100,"CSc1nc2ccccn2c(=NC(C)=O)c1S(=O)(=O)c1ccccc1 [Example 34, N-(3-Benzenesulfonyl-2-methylsulfanyl-pyrido[1,2-a]pyrimidin-4-ylidene)-acetamide]"
14,< 20,"CSc1nc2ccc(Cl)cn2c(=N)c1S(=O)(=O)c1ccccc1 [Example 13, 3-Benzenesulfonyl-7-chloro-2-methylsulfanyl-pyrido[1,2-a]pyrimidin-4-ylideneamine]"
15,< 20,"CSc1nc2ccc(F)cn2c(=N)c1S(=O)(=O)c1ccccc1 [Example 21, 3-Benzenesulfonyl-7-fluoro-2-methylsulfanyl-pyrido[1,2-a]pyrimidin-4-ylideneamine]"
16,< 20,"CSc1nc2ccc(Br)cn2c(=N)c1S(=O)(=O)c1ccccc1 [Example 12, 3-Benzenesulfonyl-7-bromo-2-methylsulfanyl-pyrido[1,2-a]pyrimidin-4-ylideneamine]"
17,< 20,"CSc1nc2c(C)cccn2c(=N)c1S(=O)(=O)c1ccccc1 [Example 10, 3-Benzenesulfonyl-9-methyl-2-methylsulfanyl-pyrido[1,2-a]pyrimidin-4-ylideneamine]"
18,100 to 1000,"CSc1nc2c(OCc3ccccc3)cccn2c(=N)c1S(=O)(=O)c1ccccc1 [Example 22, 3-Benzenesulfonyl-9-benzyloxy-2-methylsulfanyl-pyrido[1,2-a]pyrimidin-4-ylideneamine]"

row,IC50 [nM],Compound
1,< 20,"CCOc1nc2ccccn2c(=N)c1S(=O)(=O)c1ccccc1 [Example 31, 3-Benzenesulfonyl-2-ethoxy-pyrido[1,2-a]pyrimidin-4-ylideneamine]"
2,< 20,CNc1nc2ccccn2c(=N)c1S(=O)(=O)c1ccccc1 [Example 26]
3,< 20,"CSc1nc2ccccn2c(=N)c1S(=O)(=O)c1ccccc1Cl [Example 7, 3-(2-Chloro-benzenesulfonyl)-2-methylsulfanyl-pyrido[1,2-a]pyrimidin-4-ylideneamine]"
4,50 to 100,"CSc1nc2ccccn2c(=N)c1S(=O)(=O)c1ccc(C(C)(C)C)cc1 [Example 8, 3-(4-t-Butyl-benzenesulfonyl)-2-methylsulfanyl-pyrido[1,2-a]pyrimidin-4-ylideneamine]"
5,100 to 1000,"CSc1nc2c(Br)cc(C)cn2c(=N)c1S(=O)(=O)c1ccccc1 [Example 15, 3-Benzenesulfonyl-9-bromo-7-methyl-2-methylsulfanyl-pyrido[1,2-a]pyrimidin-4-ylideneamine]"
6,100 to 1000,"COC(=O)c1ccc2nc(SC)c(S(=O)(=O)c3ccccc3)c(=N)n2c1 [Example 19, 3-Benzenesulfonyl-4-imino-2-methylsulfanyl-4H-pyrido[1,2-a]pyrimidine-7-carboxylic acid methyl ester]"
7,100 to 1000,"CCCc1ccn2c(=N)c(S(=O)(=O)c3ccccc3)c(SC)nc2c1 [Example 18, 3-Benzenesulfonyl-2-methylsulfanyl-8-propyl-pyrido[1,2-a]pyrimidin-4-ylideneamine]"
8,< 20,"CCNc1nc2ccccn2c(=N)c1S(=O)(=O)c1ccccc1 [Example 27, 3-(Benzenesulfonyl-4-imine-4H-pyrido[1,2-a]pyrimidin-2-yl)-ethyl-amine]"
9,50 to 100,"CCc1ccn2c(=N)c(S(=O)(=O)c3ccccc3)c(SC)nc2c1 [Example 17, 3-Benzenesulfonyl-8-ethyl-2-methylsulfanyl-pyrido[1,2-a]pyrimidin-4-ylideneamine]"
10,50 to 100,"CSc1nc2c(C)cc(Cc3ccccc3)cn2c(=N)c1S(=O)(=O)c1ccccc1 [Example 20, 3-Benzenesulfonyl-7-benzyl-9-methyl-2-methylsulfanyl-pyrido[1,2-a]pyrimidin-4-ylideneamine]"
11,50 to 100,"CSc1nc2c3ccccc3ccn2c(=N)c1S(=O)(=O)c1ccccc1 [Example 23, 3-Benzenesulfonyl-2-methylsulfanyl-pyrimido[2,1-a]isoquinolin-4-ylideneamine]"
12,< 20,"CSc1nc2c(C)cc(Br)cn2c(=N)c1S(=O)(=O)c1ccccc1 [Example 16, 3-Benzenesulfonyl-7-bromo-9-methyl-2-methylsulfanyl-pyrido[1,2-a]pyrimidin-4-ylideneamine]"
13,100 to 1000,CN=c1c(S(=O)(=O)c2ccccc2)c(SC)nc2ccccn12 [Example 33]
14,< 20,"CSc1nc2ccc(C(N)=O)cn2c(=N)c1S(=O)(=O)c1ccccc1 [Example 25, 3-Benzenesulfonyl-4-imino-2-methylsulfanyl-4H-pyrido[1,2-a]pyrimidine-7-carboxylic acid amide]"
15,< 20,"CSc1nc2ccccn2c(=N)c1S(=O)(=O)c1ccc(Cl)c(Cl)c1 [Example 6, 3-(3,4-Dichloro-benzenesulfonyl)-2-methylsulfanyl-pyrido[1,2-a]pyrimidin-4-ylideneamine]"
16,< 20,"CSc1nc2ccccn2c(=N)c1S(=O)(=O)c1cc(C)c(Cl)cc1C [Example 4, 3-(2,5-Dimethyl-4-Chloro-benzenesulfonyl)-2-methylsulfanyl-pyrido[1,2-a]pyrimidin-4-ylideneamine]"
17,50 to 100,"CSc1nc2ccccn2c(=N)c1S(=O)(=O)c1ccc2ccccc2c1 [Example 3, 2-Methylsulfanyl-3-(naphthalene-2-sulfonyl)-pyrido[2-a]pyrimidin-4-ylideneamine]"
